Where two headings read alike, the source gives them in different places.

These results are taken from patent US20070248995A1, “Molecules” (priority 2004, published 2007).

For one assay, the target named is T1, rat NK1r (Rattus norvegicus, UniProt P14600).
T1 construct: expressed in transfected cells
Briefly: Inhibition of NK1 receptor activation, intracellular Ca2+ mobilization (FLIPR) in CHO cells. Particulars: pKB ± SD, submaximal (60%) concentration of Substance P. Type of assay: cell-based. The method, then:
(§1) The activity of a compound to inhibit NK1r activation measured as NK1r-mediated increase in intracellular Ca^2+ was assessed by the following procedure:
(§2) Before the FLIPR assay the cells of each 96-well plate were loaded with the Ca^2+-sensitive dye Fluo-3 (TEFLABS 0116) at 4 μM in a loading media consisting of Nut Mix F12 (HAM) with Glutamax I, 22 mM HEPES, 2.5 mM Probenicid (Sigma P-8761) and 0.04% Pluronic F-127 (Sigma P-2443) and kept in the dark for 1 hour in a 37° C. CO2-incubator. The cells were then washed three times in assay buffer (Hanks balanced salt solution (HBSS) containing 20 mM HEPES, 2.5 mM Probenicid and 0.1% BSA) using a multi-channel pipette leaving them in 150 μl at the end of the last wash. Serial dilutions of a test compound in assay buffer (final DMSO concentration kept below 1%) were automatically pipetted by FLIPR (Fluorometric Imaging Plate Reader) into each test well and the fluorescence intensity was recorded (excitation 488 nm and emission 530 nm) by the FLIPR CCD camera for a 2-min pre-incubation period. 50 μl of the Substance P (NK1 specific), NKA (NK2 specific), or Pro-7-NKB (NK3 specific) agonist solution (final concentration equivalent to an approximate EC60 concentration) was then added by FLIPR into each well already containing 200 μl assay buffer (containing the test compound or vehicle) and the fluorescence was continuously monitored for another 2 min. The response was measured as the peak relative fluorescence after agonist addition and IC50s were calculated from ten-point concentration-response curves for each compound. The IC50s were then converted to pKB values with the following formula: KB=IC50/1+(EC60 conc. of agonist used in assay/EC50 agonist) pKB=−log KB Binding Assay for NK1 Receptors
(Calcium assays in cells follow changes in intracellular calcium, usually with a dye or a luminescent sensor.)

The target of assay [1] is T2, gerbil NK1r (Meriones unguiculatus, UniProt Q5DUB1). Briefly: Gerbil foot tap (GFT, NK1r-specific test model). Particulars: from brain homogenate concentration of antagonist at 50% inhibition, used in the Cheng-Prusoff equation. Further details: tissue Charles River, Germany (animals); host or cells: living Mongolian gerbil, central nervous system (in vivo). Type of assay: in vivo, Mongolian gerbil. The text has this: Male Mongolian gerbils (60-80 g) were purchased from Charles River, Germany. On arrival, they were housed in groups of ten, with food and water ad libitum in temperature- and humidity-controlled holding rooms. The animals were allowed at least 7 days to acclimatize to the housing conditions before experiments. Each animal was used only once and killed immediately after the experiment by heart punctuation or a lethal overdose of pentobarbital sodium.
Gerbils were anaesthetized with isoflurane. Potential CNS-permeable NK1 receptor antagonists were administered intraperitoneally, intravenously or subcutaneously.
The gerbils were lightly anaesthetized using isoflurane and a small incision was made in the skin over bregma. 10 pmol of ASMSP, a selective NK1receptor agonist, was administered icv in a volume of 5 μl using a Hamilton syringe with a needle 4 mm long. The wound was clamped shut and the animal was placed in a small plastic cage and allowed to wake up. The cage was placed on a piece of plastic tubing filled with water and connected to a computer via a pressure transducer. The number of hind feet taps was recorded.

The target of assay [2] is T2, gerbil NK1r. Put plainly: Inhibition of NK1 receptor activation, intracellular Ca2+ mobilization (FLIPR) in CHO cells. Type of assay: cell-based. Also on record: Full-length PCR was performed using primers #NK1-16 and #NK1-17; expressed in transfected cells. Particulars: pKB ± SD, submaximal (60%) concentration of Substance P. The method, then:
as §1, §2

The target in assay [3] is T2, gerbil NK1r.
Experimental: Cells were detached with Accutase® solution, harvested in PBS containing 5% FBS by centrifugation, washed twice in PBS and resuspended to a concentration of 1×10^8 cells/ml in Tris-HCl 50 mM, KCl 300 mM, EDTA-N2 10 mM pH 7.4 (4° C.). Cell suspensions were homogenized with a UltraTurrax 30 s 12.000 rpm. The homogenates were centrifuged at 38,000×g (4° C.) and the pellet resuspended in Tris-HCl 50 mM pH 7.4. The homogenization was repeated once and the homogenates were incubated on ice for 45 min. The homogenates were again centrifuged as described above and resuspended in Tris-HCl 50 mM pH 7.4. This centrifugation step was repeated 3 times in total. After the last centrifugation step the pellet was resuspended in Tris-HCl 50 mM and homogenized with Dual Potter, 10 strokes to a homogenous solution, and aliquots were removed for protein determination. Membranes were aliquoted and frozen at −80° C. until use.
The radioligand binding assay was performed at room temperature in 96-well microtiter plates (No-binding Surface Plates, Corning 3600) with a final assay volume of 200 μl/well in incubation buffer (50 mM Tris buffer (pH 7.4 RT) containing 0.1% BSA, 40 mg/L Bacitracin, complete EDTA-free protease inhibitor cocktail tablets 20 pills/L (Roche) and 3 mM MnCl2).
Competition binding curves were done by adding increasing amounts of the test compound. […]
(§3) The membranes were then collected by rapid filtration on Filtermat B(Wallac), presoaked in 0.1% BSA and 0.3% Polyethyleneimine (Sigma P-3143), using a Micro 96 Harvester (Skatron Instruments, Norway). […] Meltilex scintillator sheets were melted on to filters using a Microsealer (Wallac, Finland) and the filters were counted in a β-Liquid Scintillation Counter (1450 Microbeta, Wallac, Finland).
(§4) The Ki value for the unlabeled ligand was calculated using the Cheng-Prusoff equation (Biochem. Pharmacol. 22:3099-3108, 1973), where L is the concentration of the radioactive ligand used and Kd is the affinity of the radioactive ligand for the receptor, determined by saturation binding. […]
In assay [4] the target is T3, human NK1r (Homo sapiens, UniProt P25103). Put plainly: Inhibition of NK1 receptor activation, intracellular Ca2+ mobilization (FLIPR) in CHO cells. Type of assay: cell-based. Also on record: expressed in transfected cells. As to conditions: pKB ± SD, submaximal (60%) concentration of Substance P. The method, then: as §1
CO2-incubator. The cells were then washed three times in assay buffer (Hanks balanced salt solution (HBSS) containing 20 mM HEPES, 2.5 mM Probenicid and 0.1% BSA) using a multi-channel pipette leaving them in 150 μl at the end of the last wash. […] 50 μl of the Substance P (NK1 specific), NKA (NK2 specific), or Pro-7-NKB (NK3 specific) agonist solution (final concentration equivalent to an approximate EC60 concentration) was then added by FLIPR into each well already containing 200 μl assay buffer (containing the test compound or vehicle) and the fluorescence was continuously monitored for another 2 min. The response was measured as the peak relative fluorescence after agonist addition and IC50s were calculated from ten-point concentration-response curves for each compound. The IC50s were then converted to pKB values with the following formula: KB=IC50/1+(EC60 conc. of agonist used in assay/EC50 agonist) pKB=−log KB Binding Assay for NK1 Receptors

In assay [5] the target is T3, human NK1r.
Experimental: Cells were detached with Accutase® solution, harvested in PBS containing 5% FBS by centrifugation, washed twice in PBS and resuspended to a concentration of 1×10^8 cells/ml in Tris-HCl 50 mM, KCl 300 mM, EDTA-N2 10 mM pH 7.4 (4° C.). Cell suspensions were homogenized with a UltraTurrax 30 s 12.000 rpm. The homogenates were centrifuged at 38,000×g (4° C.) and the pellet resuspended in Tris-HCl 50 mM pH 7.4. The homogenization was repeated once and the homogenates were incubated on ice for 45 min. The homogenates were again centrifuged as described above and resuspended in Tris-HCl 50 mM pH 7.4. This centrifugation step was repeated 3 times in total. […]
as §3, §4

T2 sequence (Q5DUB1 whole entry): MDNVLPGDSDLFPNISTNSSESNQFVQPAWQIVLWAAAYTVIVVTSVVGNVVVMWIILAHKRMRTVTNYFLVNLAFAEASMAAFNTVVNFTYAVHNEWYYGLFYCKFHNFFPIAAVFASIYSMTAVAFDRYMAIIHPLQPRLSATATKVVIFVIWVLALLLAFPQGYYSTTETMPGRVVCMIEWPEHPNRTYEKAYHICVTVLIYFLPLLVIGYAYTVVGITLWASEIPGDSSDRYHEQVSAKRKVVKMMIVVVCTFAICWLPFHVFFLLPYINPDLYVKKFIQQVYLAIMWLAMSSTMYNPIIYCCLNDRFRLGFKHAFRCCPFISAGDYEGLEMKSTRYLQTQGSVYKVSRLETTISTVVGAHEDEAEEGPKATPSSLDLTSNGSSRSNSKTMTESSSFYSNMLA
T1 sequence (P14600 whole entry): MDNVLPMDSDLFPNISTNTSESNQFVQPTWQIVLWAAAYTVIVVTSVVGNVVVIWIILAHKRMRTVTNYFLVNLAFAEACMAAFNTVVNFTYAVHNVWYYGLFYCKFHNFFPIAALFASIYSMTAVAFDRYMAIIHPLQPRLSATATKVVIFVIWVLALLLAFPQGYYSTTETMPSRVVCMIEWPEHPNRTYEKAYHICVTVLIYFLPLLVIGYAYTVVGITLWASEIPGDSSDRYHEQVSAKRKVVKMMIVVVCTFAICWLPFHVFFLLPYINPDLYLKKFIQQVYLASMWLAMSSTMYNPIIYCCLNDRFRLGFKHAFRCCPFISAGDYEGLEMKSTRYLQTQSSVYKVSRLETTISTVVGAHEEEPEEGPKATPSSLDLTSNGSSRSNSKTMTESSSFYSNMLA
T3 sequence (P25103 whole entry): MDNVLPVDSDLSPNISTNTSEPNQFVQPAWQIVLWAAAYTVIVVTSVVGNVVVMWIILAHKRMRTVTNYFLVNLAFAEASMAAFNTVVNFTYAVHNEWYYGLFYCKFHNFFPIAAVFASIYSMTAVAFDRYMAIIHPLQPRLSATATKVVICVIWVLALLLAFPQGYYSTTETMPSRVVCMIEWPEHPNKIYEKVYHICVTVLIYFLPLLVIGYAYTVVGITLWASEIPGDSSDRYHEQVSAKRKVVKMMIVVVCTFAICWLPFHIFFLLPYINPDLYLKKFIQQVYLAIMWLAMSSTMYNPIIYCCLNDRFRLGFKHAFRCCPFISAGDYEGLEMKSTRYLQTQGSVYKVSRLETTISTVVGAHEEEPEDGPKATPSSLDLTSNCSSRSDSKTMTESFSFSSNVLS

As a reminder, the Ki is the dissociation constant of the complex between target and ligand, obtained from inhibition or displacement. For `COc1ccccc1CN[C@H]1CCCN[C@H]1c1ccccc1` [CP 99994], the Kb at rat NK1r was 1230 nM; on gerbil NK1r [2] it was 1.15 nM. In addition, at gerbil NK1r [1], the “gerbil NK1r pKBapp. (in vivo GFT apparent pKB)” value is 8.1. The same compound gave a Ki at gerbil NK1r [3] of 0.81 nM.

With `C[C@@H](O[C@H]1OCCN(Cc2n[nH]c(=O)[nH]2)[C@H]1c1ccc(F)cc1)c1cc(C(F)(F)F)cc(C(F)(F)F)c1` [MK 869, aprepitant], the Kb on rat NK1r is 55 nM; at gerbil NK1r [2] it was 1.55 nM. Moreover, the “gerbil NK1r pKBapp. (in vivo GFT apparent pKB)” value at gerbil NK1r [1] is given as 8.9. At gerbil NK1r [3], this compound registered a Ki of 0.16 nM.

Turning to `CN(C[C@@H](CCN1CCC(c2ccccc2[S@+](C)[O-])CC1)c1ccc(Cl)c(Cl)c1)C(=O)c1cc(C#N)cc2ccccc12` [ZD 6021], the “rat NK1r pKB” value at rat NK1r is on record as less than 6. Besides, on human NK1r [4], the “human NK1r pKB” value amounted to 8.53 ± 0.41. At gerbil NK1r [1], the “gerbil NK1r pKBapp. (in vivo GFT apparent pKB)” value was found to be 8.5. Moreover, the “gerbil NK1r pKB” value at gerbil NK1r [2] came out at 9.00 ± 0.25. Further, the Ki amounted to 0.38 nM on gerbil NK1r [3] (read-out: Gerbil NK1 Ki, competition binding, CHO cell membranes) and 0.31 nM on human NK1r [5].
